According to US8691864B2, “Agents useful for reducing amyloid precursor protein and treating dementia and methods of use thereof” (priority 2000, dated 2014):

Tests used:
[1] = test system: SH-SY-5Y Cells; test: MTS toxicity assay in SHSY5Y cells; assay type: cell-based, human
Method: (§1) An enzyme-linked immunosorbent assay was developed to detect secreted APP in SHSY5Y cells, a human neuroblastoma cell line. The purpose of the screen was to discover small molecules that inhibit APP protein synthesis in SHSY5Y cells. SHSY5Y cells were plated at 1×10^5 cells/well in […] of DMEM containing 0.5% heat inactivated FBS in 96 well tissue culture treated plates (Falcon no. 35 3072). 144 MES compounds were tested at final concentrations of […] in 0.1% DMSO. Compounds were added and the plates incubated for 16 hours at 37° C./5% CO2. Maxisorp plates (Nunc no. 437958) were coated overnight with […] capture antibody (Biosource 44-100) diluted in Ca^++ and Mg^++ free PBS. Biosource 44-100 is a mouse mAb that recognizes aa 1-100 of human APP. Plates were blocked for 30 minutes with 1 mg/mL BSA in Ca^++ and Mg^++ free PBS. Plates were washed 3× with wash buffer (Ca^++ and Mg^++ free PBS+0.01% Tween20). […] of supernatants and non-cultured medium controls were transferred from culture plates to ELISA plates. Culture plates were reserved for toxicity analysis. Supernatants were incubated for 4 hours at RT on a plate shaker. After supernatant incubation, plates were washed 3×. Primary antibody (Signet Clone 6E-10 biotin) was added at 0.3125 mg/mL and incubated overnight at 4° C. The recognition site of 6E-10 is aa 1-17 of Ab. For detection, a 1:3000 dilution of horseradish peroxidase conjugated streptavidin (Endogen no. N-100) was incubated for 30 minutes. Plates were washed 3×. Enzyme activity was assessed by incubation with […] TMB substrate solution (Moss no. TMB-US) for 20 minutes. The reaction was stopped by the addition of […] 0.18M sulfuric acid. Optical density was read at 450 nm on Wallac Victor2 plate reader. During the first incubation, toxicity was determined using MTS assay, Cell Titer96 AQ reagent (Promega no. G5430). The background values from the non-cultured medium control were subtracted from the sample values and secreted APP levels and toxicity were expressed as % vehicle control. Of the 144 MES compounds screened, 12 inhibited secreted APP as determined by ELISA. The results are depicted in FIGS. 13A-M.
(§2) Using the experimental procedure outlined above, APP secretion and toxicity studies were performed on several other non-carbamate compounds, and the results are shown in Tables 3 and 4. The compound structures are provided in Table 2 in the application, which are identified by their MES number.

[2] = test system: secreted APP; test: ELISA for secreted APP in SHSY5Y cells; assay type: cell-based, human; details: 16 hours
Method: as §1, §2

| Structure (SMILES) | APP Toxicity SH-SY-5Y Cells (MTS assay) ([1]; Dose 2 uM) | APP Toxicity SH-SY-5Y Cells (MTS assay) ([1]; Dose 6 uM) | APP Toxicity SH-SY-5Y Cells (MTS assay) ([1]; Dose 20 uM) | APP Secretion by SH-SY-5Y Cells ([2]; Dose 2 uM) | APP Secretion by SH-SY-5Y Cells ([2]; Dose 6 uM) | APP Secretion by SH-SY-5Y Cells ([2]; Dose 20 uM) | APP Toxicity SH-SY-5Y Cells (MTS assay) ([1]; Dose 0.08 uM) | APP Toxicity SH-SY-5Y Cells (MTS assay) ([1]; Dose 0.25 uM) | APP Toxicity SH-SY-5Y Cells (MTS assay) ([1]; Dose 0.74 uM) | APP Secretion by SH-SY-5Y Cells ([2]; Dose 0.08 uM) | APP Secretion by SH-SY-5Y Cells ([2]; Dose 0.25 uM) | APP Secretion by SH-SY-5Y Cells ([2]; Dose 0.74 uM) | APP Toxicity SH-SY-5Y Cells (MTS assay) ([1]; Dose 2 uM, listed as 9228) | APP Toxicity SH-SY-5Y Cells (MTS assay) ([1]; Dose 6 uM, listed as 9228) | APP Toxicity SH-SY-5Y Cells (MTS assay) ([1]; Dose 20 uM, listed as 9228) | APP Secretion by SH-SY-5Y Cells ([2]; Dose 2 uM, listed as 9228) | APP Secretion by SH-SY-5Y Cells ([2]; Dose 6 uM, listed as 9228) | APP Secretion by SH-SY-5Y Cells ([2]; Dose 20 uM, listed as 9228) |
| --- | --- | --- | --- | --- | --- | --- | --- | --- | --- | --- | --- | --- | --- | --- | --- | --- | --- | --- |
| COc1ccc2c(c1)[C@]1(C)CCN(C)C1N2Cc1ccccc1 (single isomer, unassigned) [MES 9202] | 99.15 % vehicle control | 97.85 % vehicle control | 90.25 % vehicle control | 94.4 % vehicle control | 107.55 % vehicle control | 110.05 % vehicle control |  |  |  |  |  |  |  |  |  |  |  |  |
| COc1ccc2c(c1)[C@@]1(C)CCN(C)C1N2Cc1ccccc1 (single isomer, unassigned) [MES 9203] | 98.93 % vehicle control | 99.17 % vehicle control | 98.83 % vehicle control | 103.1 % vehicle control | 103.9 % vehicle control | 108.4 % vehicle control |  |  |  |  |  |  |  |  |  |  |  |  |
| COc1ccc2c(c1)[C@@]1(C)CCN(C)C1N2C (single isomer, unassigned; (+)) [MES 9295, (+)-O-Methyleseroline] | 101.15 % vehicle control | 100.4 % vehicle control | 99.85 % vehicle control | 102.6 % vehicle control | 95.7 % vehicle control | 89.35 % vehicle control |  |  |  |  |  |  |  |  |  |  |  |  |
| CN1CC[C@@]2(C)c3cc(O)ccc3N(C)C2NC1=O (single isomer, unassigned; (-)) [MES 9205] | 97.9 % vehicle control | 97.73 % vehicle control | 33.33 % vehicle control | 96.73 % vehicle control | 96.9 % vehicle control | 22.17 % vehicle control | 108.7 % vehicle control | 105.8 % vehicle control | 105.6 % vehicle control | 115.1 % vehicle control | 107.4 % vehicle control | 114.7 % vehicle control |  |  |  |  |  |  |
| CN1c2ccc(OC3CCCCO3)cc2[C@]2(C)CCNC12 (single isomer, unassigned; (-)) [MES 9320, (−)-O-Tetrahydropyranyl-N-1-noreseroline] | 92 % vehicle control | 84 % vehicle control | 28 % vehicle control | 103.15 % vehicle control | 91.8 % vehicle control | 15.2 % vehicle control |  |  |  |  |  |  |  |  |  |  |  |  |
| COc1ccc2c(c1)c(CCN(C)C)cn2Cc1ccccc1 [MES 9191, N,N-Dimethyl-N^1-benzyl-5-methoxytryptamine] | 99.18 % vehicle control | 92.84 % vehicle control | 91.1 % vehicle control | 100.74 % vehicle control | 65.3 % vehicle control | 64.36 % vehicle control | 104.5 % vehicle control | 103.9 % vehicle control | 103.7 % vehicle control | 100.8 % vehicle control | 101.6 % vehicle control | 99.87 % vehicle control |  |  |  |  |  |  |
| COc1ccc2c(c1)C1(C)CCN(C)C1N2Cc1ccccc1 (stereo not drawn) [MES 9199] | 100.5 % vehicle control | 101.65 % vehicle control | 101.9 % vehicle control | 92.2 % vehicle control | 93.9 % vehicle control | 102.95 % vehicle control |  |  |  |  |  |  |  |  |  |  |  |  |
| COc1ccc2c(c1)C1(C)CCN(C)C1N2 (stereo not drawn) [MES 9201] | 98.9 % vehicle control | 98.65 % vehicle control | 98.25 % vehicle control | 97.25 % vehicle control | 110.75 % vehicle control | 124.65 % vehicle control |  |  |  |  |  |  |  |  |  |  |  |  |
| CN1CC[C@@]2(C)c3cc(O)ccc3N(Cc3ccccc3)C12 (stereo partly drawn) [MES 9206] | 96 % vehicle control | 91.85 % vehicle control | 76.3 % vehicle control | 88.2 % vehicle control | 97.1 % vehicle control | 96.4 % vehicle control |  |  |  |  |  |  |  |  |  |  |  |  |
| CN1CC[C@]2(C)c3cc(O)ccc3N(Cc3ccccc3)C12 (stereo partly drawn) [MES 9215] | 92.3 % vehicle control | 78.6 % vehicle control | 12.9 % vehicle control | 94.55 % vehicle control | 108.1 % vehicle control | 6.2 % vehicle control |  |  |  |  |  |  |  |  |  |  |  |  |
| CN1CC[C@@]2(C)C3=CC(=O)C(=O)C=C3N(C)C12 (stereo partly drawn) [MES 9225] | 104.6 % vehicle control | 100.1 % vehicle control | 66.5 % vehicle control | 110.45 % vehicle control | 109.2 % vehicle control | 59.75 % vehicle control |  |  |  |  |  |  |  |  |  |  |  |  |
| C=CC1C[N+]2(Cc3ccc(C(F)(F)F)cc3)CCC1CC2[C@H](O)c1ccnc2ccccc12.[Br-] (stereo partly drawn) [MES 9226] | 106.4 % vehicle control | 99.7 % vehicle control | 97.9 % vehicle control | 116.55 % vehicle control | 101.95 % vehicle control | 104.65 % vehicle control |  |  |  |  |  |  |  |  |  |  |  |  |
| COc1ccc2c(c1)[C@@](C)(CC#N)C(=O)N2C [MES 9227] | 103.7 % vehicle control | 99.27 % vehicle control | 96.07 % vehicle control | 101.15 % vehicle control | 99.45 % vehicle control | 120.5 % vehicle control |  |  |  |  |  |  |  |  |  |  |  |  |
| COc1ccc2c(c1)[C@@]1(C)CCNC1N2C (stereo partly drawn) [MES 9228] |  |  |  |  |  |  |  |  |  |  |  |  | 102.8 % vehicle control | 97.6 % vehicle control | 95.4 % vehicle control | 97.75 % vehicle control | 110.45 % vehicle control | 130.05 % vehicle control |
| COc1ccc2c(c1)[C@@]1(C)CCN(C)C1N2C (stereo partly drawn) [MES 9229] | 99.97 % vehicle control | 96.07 % vehicle control | 91.47 % vehicle control | 111.6 % vehicle control | 111.4 % vehicle control | 125.1 % vehicle control |  |  |  |  |  |  |  |  |  |  |  |  |
